This is an account of results in the supplement of paper PMC10307832.

Holding throughout (experiment): relative viability (nuclei count vs DMSO), 5 days (fraction); higher = more cells survive
Compound in experiment [1]: CC1CC(=O)N(C2=CN=C(N=C2N1C3CCCC3)NC4=C(C=C(C=C4)C(=O)NC5CCN(CC5)C)OC)C [NPK76-II-72-1] + CCNC(=O)c1noc(-c2cc(C(C)C)c(O)cc2O)c1-c1ccc(CN2CCOCC2)cc1 [Luminespib] (partner 0.01 µM)
In short, it runs like this:
(§1)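 After 5 days of treatment, lung cancer cells in 1536-well plates were fixed and stained in a single step (final 0.05% Triton X-100, 1% formaldehyde, 1 ug/ml Hoechst) and their nuclei counted on 4× images. Treatment had been applied by pin tool the day after seeding as one drug alone or as a fixed anchor-drug dose with five library-drug doses (not always all listed) in √10 steps. Relative viability is the nuclei count of treated wells divided by that of vehicle wells, and values are medians of duplicate plates.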

Compound in the experiment “BI-2536 + Trametinib”: CC[C@@H]1C(=O)N(C)c2cnc(Nc3ccc(C(=O)NC4CCN(C)CC4)cc3OC)nc2N1C1CCCC1 [BI-2536] + CC(=O)Nc1cccc(-n2c(=O)n(C3CC3)c(=O)c3c(Nc4ccc(I)cc4F)n(C)c(=O)c(C)c32)c1 [Trametinib] (partner 0.02 µM)
The method in brief: as §1

Compound in the experiment “BI-2536 + Linsitinib”: CC[C@@H]1C(=O)N(C)c2cnc(Nc3ccc(C(=O)NC4CCN(C)CC4)cc3OC)nc2N1C1CCCC1 [BI-2536] + C[C@]1(O)C[C@@H](c2nc(-c3ccc4ccc(-c5ccccc5)nc4c3)c3c(N)nccn32)C1 [Linsitinib] (partner 1 µM)
The method in brief:
as §1

Compound in the experiment “BI-2536 + Decitabine”: CC[C@@H]1C(=O)N(C)c2cnc(Nc3ccc(C(=O)NC4CCN(C)CC4)cc3OC)nc2N1C1CCCC1 [BI-2536] + Nc1ncn([C@H]2C[C@H](O)[C@@H](CO)O2)c(=O)n1 [Decitabine] (partner 2 µM)
In short, it runs like this: as §1

On to NCI-H3122, for which the relative viability in experiment [1] (first compound 0.01 µM) was found to be 0.095; in experiment [1] (first compound 0.03162 µM), 0.101; in experiment [1] (first compound 0.1 µM), 0.113; in experiment [1] (first compound 0.3162 µM), 0.0814; in experiment [1] (first compound 1 µM) it was 0.079; in the experiment with BI-2536 + Trametinib (first compound 0.01 µM) it was 0.226. For the same cell line, the relative viability stood at 0.239 in the experiment with BI-2536 + Trametinib (first compound 0.03162 µM); 0.209 in the experiment with BI-2536 + Trametinib (first compound 0.1 µM); 0.131 in the experiment with BI-2536 + Trametinib (first compound 0.3162 µM); 0.171 in the experiment with BI-2536 + Trametinib (first compound 1 µM); 1.03 in the experiment with BI-2536 + Linsitinib (first compound 0.01 µM); 1.06 in the experiment with BI-2536 + Linsitinib (first compound 0.03162 µM). Also, the relative viability came out at 1.01 with BI-2536 + Linsitinib (first compound 0.1 µM); 0.184 with BI-2536 + Linsitinib (first compound 0.3162 µM); 0.224 with BI-2536 + Linsitinib (first compound 1 µM); 0.386 with BI-2536 + Decitabine (first compound 0.01 µM); 0.508 in the experiment with BI-2536 + Decitabine (first compound 0.03162 µM); 0.392 in the experiment with BI-2536 + Decitabine (first compound 0.1 µM). Further, the relative viability with BI-2536 + Decitabine (first compound 0.3162 µM) turned out to be 0.151; with BI-2536 + Decitabine (first compound 1 µM), 0.159.
Regarding PC-3 [JPC-3], the relative viability in experiment [1] (first compound 0.01 µM) was 0.622; in experiment [1] (first compound 0.03162 µM) it was 0.705; in experiment [1] (first compound 0.1 µM), 0.638; in experiment [1] (first compound 0.3162 µM), 0.713; in experiment [1] (first compound 1 µM), 0.728; in the experiment with BI-2536 + Trametinib (first compound 0.01 µM), 0.71. Moreover, the relative viability was 0.583 in the experiment with BI-2536 + Trametinib (first compound 0.03162 µM); 0.616 in the experiment with BI-2536 + Trametinib (first compound 0.1 µM); 0.357 in the experiment with BI-2536 + Trametinib (first compound 0.3162 µM); 0.438 in the experiment with BI-2536 + Trametinib (first compound 1 µM); 0.974 in the experiment with BI-2536 + Linsitinib (first compound 0.01 µM); 0.899 with BI-2536 + Linsitinib (first compound 0.03162 µM). Moreover, the relative viability in the experiment with BI-2536 + Linsitinib (first compound 0.1 µM) is 1; with BI-2536 + Linsitinib (first compound 0.3162 µM) it was 0.756; with BI-2536 + Linsitinib (first compound 1 µM) it was 0.259; with BI-2536 + Decitabine (first compound 0.01 µM), 0.775; in the experiment with BI-2536 + Decitabine (first compound 0.03162 µM), 0.752; with BI-2536 + Decitabine (first compound 0.1 µM), 0.757. The relative viability with BI-2536 + Decitabine (first compound 0.3162 µM) was 0.362; with BI-2536 + Decitabine (first compound 1 µM), 0.408.
Take PC-14: the relative viability was found to be 0.133 in experiment [1] (first compound 0.01 µM); 0.125 in experiment [1] (first compound 0.03162 µM); 0.239 in experiment [1] (first compound 0.1 µM); 0.132 in experiment [1] (first compound 0.3162 µM); 0.164 in experiment [1] (first compound 1 µM); 0.847 in the experiment with BI-2536 + Trametinib (first compound 0.01 µM). In addition, the relative viability was 0.71 with BI-2536 + Trametinib (first compound 0.03162 µM); 0.0723 with BI-2536 + Trametinib (first compound 0.1 µM); 0.0556 with BI-2536 + Trametinib (first compound 0.3162 µM); 0.0339 in the experiment with BI-2536 + Trametinib (first compound 1 µM); 0.988 in the experiment with BI-2536 + Linsitinib (first compound 0.01 µM); 0.987 with BI-2536 + Linsitinib (first compound 0.03162 µM). Also, the relative viability with BI-2536 + Linsitinib (first compound 0.1 µM) was determined as 0.943; in the experiment with BI-2536 + Linsitinib (first compound 0.3162 µM), 0.727; in the experiment with BI-2536 + Linsitinib (first compound 1 µM), 0.0823; with BI-2536 + Decitabine (first compound 0.01 µM) it was 0.227; in the experiment with BI-2536 + Decitabine (first compound 0.03162 µM), 0.172; with BI-2536 + Decitabine (first compound 0.1 µM), 0.09. Also, the relative viability with BI-2536 + Decitabine (first compound 0.3162 µM) turned out to be 0.0445; with BI-2536 + Decitabine (first compound 1 µM) it was 0.0408.
For RERF-LC-KJ, the relative viability in experiment [1] (first compound 0.01 µM) worked out at 1.33; in experiment [1] (first compound 0.03162 µM), 1.41; in experiment [1] (first compound 0.1 µM), 1.3; in experiment [1] (first compound 0.3162 µM), 1.21; in experiment [1] (first compound 1 µM) it was 1.33; in the experiment with BI-2536 + Trametinib (first compound 0.01 µM) it was 0.884. Further, the relative viability in the experiment with BI-2536 + Trametinib (first compound 0.03162 µM) came out at 0.953; in the experiment with BI-2536 + Trametinib (first compound 0.1 µM), 0.527; with BI-2536 + Trametinib (first compound 0.3162 µM), 0.186; in the experiment with BI-2536 + Trametinib (first compound 1 µM), 0.225; in the experiment with BI-2536 + Linsitinib (first compound 0.01 µM) it was 0.969; with BI-2536 + Linsitinib (first compound 0.03162 µM) it was 0.913. The relative viability came out at 0.829 with BI-2536 + Linsitinib (first compound 0.1 µM); 0.522 with BI-2536 + Linsitinib (first compound 0.3162 µM); 0.199 with BI-2536 + Linsitinib (first compound 1 µM); 0.692 in the experiment with BI-2536 + Decitabine (first compound 0.01 µM); 0.437 with BI-2536 + Decitabine (first compound 0.03162 µM); 0.157 with BI-2536 + Decitabine (first compound 0.1 µM). Further, the relative viability was 0.194 in the experiment with BI-2536 + Decitabine (first compound 0.3162 µM) and 0.215 in the experiment with BI-2536 + Decitabine (first compound 1 µM).
Take SK-LU-1: the relative viability in experiment [1] (first compound 0.01 µM) came out at 0.181; in experiment [1] (first compound 0.03162 µM), 0.206; in experiment [1] (first compound 0.1 µM) it was 0.213; in experiment [1] (first compound 0.3162 µM), 0.196; in experiment [1] (first compound 1 µM) it was 0.209; with BI-2536 + Trametinib (first compound 0.01 µM), 0.347. Also, the relative viability with BI-2536 + Trametinib (first compound 0.03162 µM) worked out at 0.514; with BI-2536 + Trametinib (first compound 0.1 µM), 0.335; in the experiment with BI-2536 + Trametinib (first compound 0.3162 µM), 0.218; in the experiment with BI-2536 + Trametinib (first compound 1 µM) it was 0.386; with BI-2536 + Linsitinib (first compound 0.01 µM), 1.04; with BI-2536 + Linsitinib (first compound 0.03162 µM) it was 1.19. In addition, the relative viability with BI-2536 + Linsitinib (first compound 0.1 µM) was 1.02; with BI-2536 + Linsitinib (first compound 0.3162 µM) it was 0.3; with BI-2536 + Linsitinib (first compound 1 µM) it was 0.303; with BI-2536 + Decitabine (first compound 0.01 µM), 0.61; in the experiment with BI-2536 + Decitabine (first compound 0.03162 µM) it was 0.726; with BI-2536 + Decitabine (first compound 0.1 µM) it was 0.337. The relative viability in the experiment with BI-2536 + Decitabine (first compound 0.3162 µM) stood at 0.316; with BI-2536 + Decitabine (first compound 1 µM) it was 0.249.
SK-MES-1: the relative viability was 0.827 in experiment [1] (first compound 0.01 µM); 0.79 in experiment [1] (first compound 0.03162 µM); 0.646 in experiment [1] (first compound 0.1 µM); 0.688 in experiment [1] (first compound 0.3162 µM); 0.857 in experiment [1] (first compound 1 µM); 0.523 with BI-2536 + Trametinib (first compound 0.01 µM). For the same cell line, the relative viability with BI-2536 + Trametinib (first compound 0.03162 µM) stood at 0.555; with BI-2536 + Trametinib (first compound 0.1 µM), 0.407; with BI-2536 + Trametinib (first compound 0.3162 µM) it was 0.196; with BI-2536 + Trametinib (first compound 1 µM), 0.161; with BI-2536 + Linsitinib (first compound 0.01 µM), 1.08; with BI-2536 + Linsitinib (first compound 0.03162 µM), 1.01. Moreover, the relative viability was 0.979 in the experiment with BI-2536 + Linsitinib (first compound 0.1 µM); 1.02 in the experiment with BI-2536 + Linsitinib (first compound 0.3162 µM); 0.176 with BI-2536 + Linsitinib (first compound 1 µM); 0.335 with BI-2536 + Decitabine (first compound 0.01 µM); 0.351 with BI-2536 + Decitabine (first compound 0.03162 µM); 0.186 with BI-2536 + Decitabine (first compound 0.1 µM). Moreover, the relative viability in the experiment with BI-2536 + Decitabine (first compound 0.3162 µM) was 0.164; with BI-2536 + Decitabine (first compound 1 µM), 0.184.
Take SW 1573: the relative viability amounted to 0.333 in experiment [1] (first compound 0.01 µM); 0.218 in experiment [1] (first compound 0.03162 µM); 0.278 in experiment [1] (first compound 0.1 µM); 0.383 in experiment [1] (first compound 0.3162 µM); 0.21 in experiment [1] (first compound 1 µM); 0.515 with BI-2536 + Trametinib (first compound 0.01 µM). Also, the relative viability with BI-2536 + Trametinib (first compound 0.03162 µM) came to 0.51; with BI-2536 + Trametinib (first compound 0.1 µM) it was 0.117; in the experiment with BI-2536 + Trametinib (first compound 0.3162 µM), 0.103; in the experiment with BI-2536 + Trametinib (first compound 1 µM), 0.0762; with BI-2536 + Linsitinib (first compound 0.01 µM), 0.696; in the experiment with BI-2536 + Linsitinib (first compound 0.03162 µM) it was 0.683. In addition, the relative viability in the experiment with BI-2536 + Linsitinib (first compound 0.1 µM) came out at 0.82; in the experiment with BI-2536 + Linsitinib (first compound 0.3162 µM) it was 0.161; in the experiment with BI-2536 + Linsitinib (first compound 1 µM), 0.132; with BI-2536 + Decitabine (first compound 0.01 µM), 0.473; in the experiment with BI-2536 + Decitabine (first compound 0.03162 µM) it was 0.257; with BI-2536 + Decitabine (first compound 0.1 µM), 0.095. Also, the relative viability is 0.0944 with BI-2536 + Decitabine (first compound 0.3162 µM) and 0.0866 in the experiment with BI-2536 + Decitabine (first compound 1 µM).
